Read-outs that look alike come from different tables or passages of the source.
What was measured:
human Gal-1 (hGal-1) = human Gal-1 (hGal-1) (Homo sapiens (Human), UniProt P09382); assay: competitive binding assay: biotinylated hGal-1 binding to microplate-adsorbed asialofetuin (ASF); conditions: Table 15; read-out: IC50 (Galectin-1 inhibition)
Procedure, shortened: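 Spectrophotometric competition readout: after compound and biotinylated hGal-1 (300-1000 ng/mL) sit 3 h at 4° C on adsorbed asialofetuin, streptavidin-peroxidase (1 h, 4° C) and ABTS reveal residual binding. Reported IC50 values are means of repeat runs.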

human Gal-3 (hGal-3) = human Gal-3 (hGal-3) (Homo sapiens (Human), UniProt P17931); assay: competitive binding assay: biotinylated hGal-3 binding to microplate-adsorbed asialofetuin (ASF)
Chain of human Gal-3 (hGal-3) (P17931 whole entry): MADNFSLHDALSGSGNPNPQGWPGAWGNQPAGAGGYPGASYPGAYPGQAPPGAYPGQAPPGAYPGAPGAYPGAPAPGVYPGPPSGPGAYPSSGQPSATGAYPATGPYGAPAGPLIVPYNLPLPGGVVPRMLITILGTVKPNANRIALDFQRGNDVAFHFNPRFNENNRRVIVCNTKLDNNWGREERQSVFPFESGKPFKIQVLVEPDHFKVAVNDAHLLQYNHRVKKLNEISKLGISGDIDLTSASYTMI
Procedure, shortened: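 Serial DMSO dilutions of each compound; binding incubation of 3 hours at 4 °C with cold-buffer washes; detection using 80 ng/mL streptavidin-peroxidase for 1 hour, then ABTS. Multiple determinations were averaged to give the IC50.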

[1] = Table 11, read-out: IC50 (Gal-3 inhibition)
[2] = Gal-3 inhibition, binding of biotinylated hGal-3 to ASF, mean values, read-out: IC50

Chain of human Gal-1 (hGal-1) (P09382 whole entry): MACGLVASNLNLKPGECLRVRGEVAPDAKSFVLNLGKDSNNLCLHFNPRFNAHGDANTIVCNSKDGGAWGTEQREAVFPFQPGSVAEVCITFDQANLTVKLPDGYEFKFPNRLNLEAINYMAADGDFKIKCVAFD

IC50 (human Gal-1 (hGal-1)) [nM] | IC50 (human Gal-3 (hGal-3); [1]) [nM] | IC50 (human Gal-3 (hGal-3); [2]) [nM] | SMILES
1240 | 240 |  | CO[C@@H]1[C@@H](n2cc(-c3cc(F)c(F)c(F)c3)nn2)[C@@H](O)[C@@H](CO)O[C@H]1SC(c1nccc(C(F)(F)F)c1C)C1(O)CCC(F)(F)CC1 (stereo partly drawn) [Example 2.44.147.I., (2R,3R,4S,5R,6S)-6-(((4,4-Difluoro-1-hydroxycyclohexyl)(3-methyl-4-(trifluoromethyl)pyridin-2-yl)methyl)thio)-2-(hydroxymethyl)-5-methoxy-4-(4-(3,4,5-trifluorophenyl)-1H-1,2,3-triazol-1-yl)tetrahydro-2H-pyran-3-ol]
760 | 190 |  | CO[C@@H]1[C@@H](n2cc(-c3cc(F)c(F)c(F)c3)nn2)[C@@H](O)[C@@H](CO)O[C@H]1S[C@H](c1nccc(C(F)(F)F)c1C)C1(O)CCC(F)(F)CC1 [Example 2.44.147R.I., (2R,3R,4S,5R,6S)-6-(((R)-(4,4-Difluoro-1-hydroxycyclohexyl)(3-methyl-4-(trifluoromethyl)pyridin-2-yl)methyl)thio)-2-(hydroxymethyl)-5-methoxy-4-(4-(3,4,5-trifluorophenyl)-1H-1,2,3-triazol-1-yl)tetrahydro-2H-pyran-3-ol]
31800 | 5300 |  | CO[C@@H]1[C@@H](n2cc(-c3cc(F)c(F)c(F)c3)nn2)[C@@H](O)[C@@H](CO)O[C@H]1S[C@@H](c1nccc(C(F)(F)F)c1C)C1(O)CCC(F)(F)CC1 [Example 2.44.147S.I., (2R,3R,4S,5R,6S)-6-(((S)-(4,4-Difluoro-1-hydroxycyclohexyl)(3-methyl-4-(trifluoromethyl)pyridin-2-yl)methyl)thio)-2-(hydroxymethyl)-5-methoxy-4-(4-(3,4,5-trifluorophenyl)-1H-1,2,3-triazol-1-yl)tetrahydro-2H-pyran-3-ol]
3040 | 240 |  | CO[C@@H]1[C@@H](n2cc(-c3cc(F)c(F)c(F)c3)nn2)[C@@H](O)[C@@H](CO)O[C@H]1S[C@H](c1nc(C)ccc1Cl)C1(O)CCC(F)(F)CC1 [Example 2.44.148R.I., (2R,3R,4S,5R,6S)-6-(((R)-(3-Chloro-6-methylpyridin-2-yl)(4,4-difluoro-1-hydroxycyclohexyl)methyl)thio)-2-(hydroxymethyl)-5-methoxy-4-(4-(3,4,5-trifluorophenyl)-1H-1,2,3-triazol-1-yl)tetrahydro-2H-pyran-3-ol]
31000 | 6990 |  | CO[C@@H]1[C@@H](n2cc(-c3cc(F)c(F)c(F)c3)nn2)[C@@H](O)[C@@H](CO)O[C@H]1S[C@@H](c1nc(C)ccc1Cl)C1(O)CCC(F)(F)CC1 [Example 2.44.148S.I., (2R,3R,4S,5R,6S)-6-(((S)-(3-Chloro-6-methylpyridin-2-yl)(4,4-difluoro-1-hydroxycyclohexyl)methyl)thio)-2-(hydroxymethyl)-5-methoxy-4-(4-(3,4,5-trifluorophenyl)-1H-1,2,3-triazol-1-yl)tetrahydro-2H-pyran-3-ol]
2800 | 400 |  | CO[C@@H]1[C@@H](n2cc(-c3cc(F)c(F)c(F)c3)nn2)[C@@H](O)[C@@H](CO)O[C@H]1SC(c1nc(C)ccc1C)C1(O)CCC(F)(F)CC1 (stereo partly drawn) [Example 2.44.149.I., (2R,3R,4S,5R,6S)-6-(((4,4-Difluoro-1-hydroxycyclohexyl)(3,6-dimethylpyridin-2-yl)methyl)thio)-2-(hydroxymethyl)-5-methoxy-4-(4-(3,4,5-trifluorophenyl)-1H-1,2,3-triazol-1-yl)tetrahydro-2H-pyran-3-ol]
460 |  | 130 | OC[C@H]1O[C@@H](SC(c2ccccc2C(F)(F)F)C2(O)CCNCC2)[C@H](O)[C@@H](n2cc(-c3cc(F)c(F)c(F)c3)nn2)[C@H]1O (stereo partly drawn) [Example 2.45.112., (2R,3R,4S,5R,6S)-2-(Hydroxymethyl)-6-(((4-hydroxypiperidin-4-yl)(2-(trifluoromethyl)phenyl)methyl)thio)-4-(4-(3,4,5-trifluorophenyl)-1H-1,2,3-triazol-1-yl)tetrahydro-2H-pyran-3,5-diol]
270 |  | 50 | CNS(=O)(=O)N1CCC(O)(C(S[C@@H]2O[C@H](CO)[C@H](O)[C@H](n3cc(-c4cc(F)c(F)c(F)c4)nn3)[C@H]2O)c2ccccc2C(F)(F)F)CC1 (stereo partly drawn) [Example 2.46.112., 4-((((2S,3R,4S,5R,6R)-3,5-Dihydroxy-6-(hydroxymethyl)-4-(4-(3,4,5-trifluorophenyl)-1H-1,2,3-triazol-1-yl)tetrahydro-2H-pyran-2-yl)thio)(2-(trifluoromethyl)phenyl)methyl)-4-hydroxy-N-methylpiperidine-1-sulfonamide]
120 |  | 30 | CS(=O)(=O)N1CCC(O)([C@H](S[C@@H]2O[C@H](CO)[C@H](O)[C@H](n3cc(-c4cc(F)c(F)c(F)c4)nn3)[C@H]2O)c2ccccc2C(F)(F)F)CC1 [Example 2.47.112R., (2S,3R,4S,5R,6R)-2-(((R)-(4-Hydroxy-1-(methylsulfonyl)piperidin-4-yl)(2-(trifluoromethyl)phenyl)methyl)thio)-6-(hydroxymethyl)-4-(4-(3,4,5-trifluorophenyl)-1H-1,2,3-triazol-1-yl)tetrahydro-2H-pyran-3,5-diol]
17500 |  | 2820 | CS(=O)(=O)N1CCC(O)([C@@H](S[C@@H]2O[C@H](CO)[C@H](O)[C@H](n3cc(-c4cc(F)c(F)c(F)c4)nn3)[C@H]2O)c2ccccc2C(F)(F)F)CC1 [Example 2.47.112S., (2S,3R,4S,5R,6R)-2-(((S)-(4-Hydroxy-1-(methylsulfonyl)piperidin-4-yl)(2-(trifluoromethyl)phenyl)methyl)thio)-6-(hydroxymethyl)-4-(4-(3,4,5-trifluorophenyl)-1H-1,2,3-triazol-1-yl)tetrahydro-2H-pyran-3,5-diol]
750 |  | 220 | CC(=O)N1CCC(O)(C(S[C@@H]2O[C@H](CO)[C@H](O)[C@H](n3cc(-c4cc(F)c(F)c(F)c4)nn3)[C@H]2O)c2ccccc2C(F)(F)F)CC1 (stereo partly drawn) [Example 2.48.112., 1-(4-((((2S,3R,4S,5R,6R)-3,5-Dihydroxy-6-(hydroxymethyl)-4-(4-(3,4,5-trifluorophenyl)-1H-1,2,3-triazol-1-yl)tetrahydro-2H-pyran-2-yl)thio)(2-(trifluoromethyl)phenyl)methyl)-4-hydroxypiperidin-1-yl)ethan-1-one]
400 |  | 190 | CO[C@@H]1[C@@H](n2cc(-c3cc(F)c(F)c(F)c3)nn2)[C@@H](O)[C@@H](CO)O[C@H]1SC(c1ccccc1C(F)(F)F)C1(O)CCN(C(C)=O)CC1 (stereo partly drawn) [Example 2.48.112.I., 1-(4-Hydroxy-4-((((2S,3R,4S,5R,6R)-5-hydroxy-6-(hydroxymethyl)-3-methoxy-4-(4-(3,4,5-trifluorophenyl)-1H-1,2,3-triazol-1-yl)tetrahydro-2H-pyran-2-yl)thio)(2-(trifluoromethyl)phenyl)methyl)piperidin-1-yl)ethan-1-one]
160 |  | 50 | O=C(NC1CC1)N1CCC(O)([C@H](S[C@@H]2O[C@H](CO)[C@H](O)[C@H](n3cc(-c4cc(F)c(F)c(F)c4)nn3)[C@H]2O)c2ccccc2C(F)(F)F)CC1 [Example 2.49.112R., N-Cyclopropyl-4-((R)-(((2S,3R,4S,5R,6R)-3,5-dihydroxy-6-(hydroxymethyl)-4-(4-(3,4,5-trifluorophenyl)-1H-1,2,3-triazol-1-yl)tetrahydro-2H-pyran-2-yl)thio)(2-(trifluoromethyl)phenyl)methyl)-4-hydroxypiperidine-1-carboxamide]
12100 |  | 3060 | O=C(NC1CC1)N1CCC(O)([C@@H](S[C@@H]2O[C@H](CO)[C@H](O)[C@H](n3cc(-c4cc(F)c(F)c(F)c4)nn3)[C@H]2O)c2ccccc2C(F)(F)F)CC1 [Example 2.49.112S., N-Cyclopropyl-4-((S)-(((2S,3R,4S,5R,6R)-3,5-dihydroxy-6-(hydroxymethyl)-4-(4-(3,4,5-trifluorophenyl)-1H-1,2,3-triazol-1-yl)tetrahydro-2H-pyran-2-yl)thio)(2-(trifluoromethyl)phenyl)methyl)-4-hydroxypiperidine-1-carboxamide]
370 |  | 80 | COC(=O)N1CCC(O)([C@H](S[C@@H]2O[C@H](CO)[C@H](O)[C@H](n3cc(-c4cc(F)c(F)c(F)c4)nn3)[C@H]2O)c2ccccc2C(F)(F)F)CC1 [Example 2.50.112R., Methyl 4-((R)-(((2S,3R,4S,5R,6R)-3,5-dihydroxy-6-(hydroxymethyl)-4-(4-(3,4,5-trifluorophenyl)-1H-1,2,3-triazol-1-yl)tetrahydro-2H-pyran-2-yl)thio)(2-(trifluoromethyl)phenyl)methyl)-4-hydroxypiperidine-1-carboxylate]
15800 |  | 7700 | COC(=O)N1CCC(O)([C@@H](S[C@@H]2O[C@H](CO)[C@H](O)[C@H](n3cc(-c4cc(F)c(F)c(F)c4)nn3)[C@H]2O)c2ccccc2C(F)(F)F)CC1 [Example 2.50.112S., Methyl 4-((S)-(((2S,3R,4S,5R,6R)-3,5-dihydroxy-6-(hydroxymethyl)-4-(4-(3,4,5-trifluorophenyl)-1H-1,2,3-triazol-1-yl)tetrahydro-2H-pyran-2-yl)thio)(2-(trifluoromethyl)phenyl)methyl)-4-hydroxypiperidine-1-carboxylate]

SMILES | IC50 (human Gal-1 (hGal-1)) [nM] | IC50 (human Gal-3 (hGal-3); [1]) [nM] | IC50 (human Gal-3 (hGal-3); [2]) [nM]
CO[C@@H]1[C@@H](n2cc(-c3cc(F)c(F)c(F)c3)nn2)[C@@H](O)[C@@H](CO)O[C@H]1SC(c1ccccc1C(F)(F)F)C1(O)CCN(C(=O)NC2CC2)CC1 (stereo partly shown) [Example 2.49.112.I.] | 490 |  | 210

— patent US12404295B2, “(Hetero)aryl-methyl-thio-beta-D-galactopyranoside derivatives” (Idorsia Pharmaceuticals Ltd, priority 2019, dated 2025)
